# Assay results reported in patent publication US20250297116A1, “PRECURSOR COMPOUNDS FOR MOLECULAR COATINGS” (Apeel Technology, Inc., priority 2015, published 2025).
# What was measured:
# [1] = system: edible substrates (blueberries, bananas, strawberries, lemons, avocados, and limes); assay: Coating studies on edible substrates: mass loss over time and visible residues; conditions: coated edible substrates
# Procedure: For these studies, mixtures (which were typically solid but in some cases were oils) comprising compounds of Formula I and/or compounds of Formula II and/or other additives (e.g., 1-monoacylglycerides, fatty acids, esters, amides, amines, thiols, carboxylic acids, ethers, aliphatic waxes, alcohols, salts (inorganic and organic), or combinations thereof) were first formed. The mixtures were then dissolved in a solvent (e.g., either ethanol or a water and ethanol mixture, for instance in a 1:2 water:ethanol ratio or lower) to form a solution, from which coatings were formed over a variety of edible substrates (blueberries, bananas, strawberries, lemons, avocados, and limes). Details about the specific formulations used and procedures for the forming of the coatings are described below for illustrative purposes with reference to FIGS. 2-18. The substrates were then examined for the presence of visible residues on the surface and tested for percent mass loss over time, and were compared to control samples without the coatings. A variety of different compositions of mixtures (e.g., solid mixtures) were used to form coatings on a variety of edible substrates, where the specific compositions and coating procedures are described below with reference to FIGS. 2-18. Some of the compositions were substantially pure (e.g., at least 90% or at least 95% pure) 2-monoacylglyceride compounds (e.g., compounds of Formula I). For example, coatings were formed from compositions that were substantially pure PA-2G, as well as from compositions that were substantially pure SA-2G. Some of the compositions were substantially pure (e.g., at least 90% or at least 95% pure) 1-monoacylglyceride compounds (e.g., compounds of Formula II). For example, coatings were formed from compositions that were substantially pure PA-1G, compositions that were substantially pure OA-1G, and compositions that were substantially pure SA-1G. Some of the compositions included a compound of Formula I and an additive, where for each of these compositions various ratios of the compound of Formula I to the additive were tested. For example, coatings were formed from compositions which included the combinations of a compound of Formula I and an additive as listed in Table 1 below. Additives included, for example, a saturated or unsaturated compound of Formula II, a saturated or unsaturated fatty acid, an ethyl ester, and/or a second compound of Formula I which is different from the (first) compound of Formula I (e.g., has a different length carbon chain).
# finger limes = assay: Average daily mass loss rate and residues of coated finger limes; conditions: bag coated, 10 mg/mL in ethanol, over several days, 24 finger limes per group, 23-27°C, 40-55% humidity
# Procedure: FIGS. 2-18 illustrate the effects of coating a variety of edible substrates with the compositions described herein. To form the coatings, solid mixtures of the compositions were first fully dissolved in ethanol at a concentration of 10 mg/mL (except where a different concentration is specified) to form a solution. The solution was then applied to the substrate either by spraying or dip coating, as detailed for each of the substrates below. The substrates were then dried on drying racks under ambient conditions (temperature in the range of 23° C.-27° C., humidity in the range of 40%-55%) until all of the solvent had evaporated, allowing the coatings to form over the substrates. […] For all mixtures described, PA was purchased from Sigma Aldrich, PA-1G was purchased from Tokyo Chemical Industry Co, PA-2G was prepared following the method of Example 1 above, SA was purchased from Sigma Aldrich, SA-1G was purchased from Alfa Aesar, SA-2G was prepared following the method of Example 3 above, MA was purchased from Sigma Aldrich, MA-1G was purchased from Tokyo Chemical Industry Co, OA was purchased from Sigma Aldrich, and EtPA was purchased from Sigma Aldrich.
# FIG. 11 is a graph showing average daily mass loss rates for finger limes coated with various mixtures of PA-2G (compound of Formula I) and PA-1G (additive) measured over the course of several days. […]
Structure (SMILES),reduction in mass loss versus uncoated control samples [1],average daily mass loss rate (finger limes)
"CCCCCCCCCCCCCC(=O)OCC(O)CO (centres unmarked) [MA-1G, 2,3-dihydroxypropan-1-yl tetradecanoate]",at most a nominal reduction in mass loss,
"CCCCCCCC/C=C\CCCCCCCC(=O)OCC(O)CO (centres unmarked) [OA-1G, 2,3-dihydroxypropan-1-yl (9Z)-Octadecenoate]",at most a nominal reduction in mass loss,
"CCCCCCCCCCCCCCCC(=O)OCC(O)CO (centres unmarked) [PA-1G, 2,3-dihydroxypropan-1-yl palmitate]",at most a nominal reduction in mass loss,over 4 % per day
"CCCCCCCCCCCCCCCC(=O)OC(CO)CO [PA-2G, 1,3-dihydroxypropan-2-yl palmitate]",at most a nominal reduction in mass loss,under 4 % per day
"CCCCCCCCCCCCCCCCCC(=O)OCC(O)CO (centres unmarked) [SA-1G, 2,3-dihydroxypropan-1-yl octadecanoate]",at most a nominal reduction in mass loss,
"CCCCCCCCCCCCCCCCCC(=O)OC(CO)CO [SA-2G, 1,3-dihydroxypropan-2-yl octadecanoate]",at most a nominal reduction in mass loss,
